# Reference: ChEMBL document CHEMBL5620428, “Discovery of tetrahydroisoquinolineindole derivatives as first dual PRMT5 inhibitors/hnRNP E1 upregulators: Design, synthesis and biological evaluation” (Eur J Med Chem, 2023)
# The source made the active and inactive calls. The calls are words filed in the database; no cut-off is given here.
# How the values were obtained:
# [1] = target: Protein arginine N-methyltransferase 5 (Homo sapiens, UniProt O14744); experiment: Inhibition of PRMT5 (unknown origin)
# Chain of Protein arginine N-methyltransferase 5 (O14744 whole entry): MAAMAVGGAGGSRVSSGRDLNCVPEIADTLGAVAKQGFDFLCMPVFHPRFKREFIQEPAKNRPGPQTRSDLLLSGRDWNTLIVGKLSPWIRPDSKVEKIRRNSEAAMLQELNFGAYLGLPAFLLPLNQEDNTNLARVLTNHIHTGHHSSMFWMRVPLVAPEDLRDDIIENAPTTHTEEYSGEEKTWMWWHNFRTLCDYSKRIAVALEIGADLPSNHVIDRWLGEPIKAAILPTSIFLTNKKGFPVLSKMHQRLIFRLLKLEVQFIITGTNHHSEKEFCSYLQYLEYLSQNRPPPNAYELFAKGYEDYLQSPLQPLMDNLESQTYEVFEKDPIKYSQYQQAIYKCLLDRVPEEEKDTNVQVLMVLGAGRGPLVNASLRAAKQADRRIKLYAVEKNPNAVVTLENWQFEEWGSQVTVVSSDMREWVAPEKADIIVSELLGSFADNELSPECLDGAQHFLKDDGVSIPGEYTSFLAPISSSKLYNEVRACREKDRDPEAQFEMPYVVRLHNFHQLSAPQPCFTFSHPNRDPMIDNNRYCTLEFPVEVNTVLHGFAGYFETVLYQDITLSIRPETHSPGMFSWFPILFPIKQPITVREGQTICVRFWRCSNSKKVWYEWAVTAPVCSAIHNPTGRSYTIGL
# A549 [2] = experiment: Antiproliferative activity against human A549 cells assessed as reduction in cell viability at 25 uM incubated for 24 hrs by SRB assay; assay type: functional, cell-based
# A549 [3] = experiment: Antiproliferative activity against human A549 cells assessed as inhibition of cell growth incubated for 24 hrs by SRB assay; assay type: functional, cell-based; details: A549, 24 h
# MCF7 = experiment: Antiproliferative activity against human MCF7 cells assessed as inhibition of cell growth incubated for 24 hrs by SRB assay; assay type: functional, cell-based; details: MCF7, 24 h
# MDA-MB-231 = experiment: Antiproliferative activity against human MDA-MB-231 cells assessed as inhibition of cell growth incubated for 24 hrs by SRB assay; assay type: functional, cell-based; details: MDA-MB-231, 24 h
# HepG2 = experiment: Antiproliferative activity against human HepG2 cells assessed as inhibition of cell growth incubated for 24 hrs by SRB assay; assay type: functional, cell-based; details: HepG2, 24 h
# [4] = Antiproliferative activity against human L02 cells assessed as inhibition of cell growth incubated for 24 hrs by SRB assay; assay type: toxicity, cell-based
# [5] = target: Protein arginine N-methyltransferase 1 (Homo sapiens, UniProt Q99873); experiment: Inhibition of PRMT1 (unknown origin)
# Chain of Protein arginine N-methyltransferase 1 (Q99873 whole entry): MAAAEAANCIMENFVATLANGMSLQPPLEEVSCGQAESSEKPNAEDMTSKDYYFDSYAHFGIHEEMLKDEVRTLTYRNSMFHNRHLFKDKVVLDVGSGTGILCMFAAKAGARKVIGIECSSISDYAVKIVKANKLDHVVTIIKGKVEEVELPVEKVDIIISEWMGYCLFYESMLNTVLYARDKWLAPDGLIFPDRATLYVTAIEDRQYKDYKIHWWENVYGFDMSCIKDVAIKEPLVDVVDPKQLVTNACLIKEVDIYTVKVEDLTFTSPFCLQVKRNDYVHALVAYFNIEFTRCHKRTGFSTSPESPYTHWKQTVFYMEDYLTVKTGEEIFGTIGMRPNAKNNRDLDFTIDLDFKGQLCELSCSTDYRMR
# [6] = target: T1, Histone-arginine methyltransferase CARM1 (Homo sapiens, UniProt Q86X55); experiment: Inhibition of PRMT4 (unknown origin)
# T1 sequence (Q86X55 whole entry): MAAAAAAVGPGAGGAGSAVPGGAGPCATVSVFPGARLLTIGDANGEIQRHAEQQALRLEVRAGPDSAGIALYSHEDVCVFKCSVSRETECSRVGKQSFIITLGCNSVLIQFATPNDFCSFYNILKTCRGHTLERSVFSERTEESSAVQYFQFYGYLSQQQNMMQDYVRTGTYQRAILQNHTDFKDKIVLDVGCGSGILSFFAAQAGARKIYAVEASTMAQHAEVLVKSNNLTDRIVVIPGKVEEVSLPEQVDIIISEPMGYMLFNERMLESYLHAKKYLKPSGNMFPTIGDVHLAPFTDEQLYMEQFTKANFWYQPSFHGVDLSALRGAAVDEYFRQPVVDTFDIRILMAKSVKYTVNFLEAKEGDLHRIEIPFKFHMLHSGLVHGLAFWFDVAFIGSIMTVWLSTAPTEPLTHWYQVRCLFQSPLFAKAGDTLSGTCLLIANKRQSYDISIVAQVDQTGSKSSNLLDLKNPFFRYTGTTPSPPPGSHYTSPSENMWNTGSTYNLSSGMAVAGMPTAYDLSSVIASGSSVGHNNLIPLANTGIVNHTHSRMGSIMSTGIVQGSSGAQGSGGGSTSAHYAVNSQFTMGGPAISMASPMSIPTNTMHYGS
# A549 [7] = experiment: Anticancer activity against human A549 cells assessed as decrease in cell number incubated for 24 hrs by SRB assay; assay type: functional, cell-based; details: dose 12.5-50 µM
# A549 [8] = experiment: Induction of apoptosis in human A549 cells assessed as nuclear fragmentation incubated for 24 hrs by Hoechst 33342 staining based analysis; assay type: functional, cell-based; details: dose 12.5-50 µM
# A549 [9] = experiment: Induction of apoptosis in human A549 cells at 2.5 to 50 uM incubated for 24 hrs by Hoechst 33342 staining based analysis; assay type: functional; details: dose 2.5-50 µM
# A549 [10] = experiment: Inhibition of cell migration human A549 cells assessed as decrease in migration distance at 12.5 to 25 uM incubated upto 12 hrs by wound healing assay; assay type: functional, cell-based; details: dose 12.5-25 µM
# A549 [11] = experiment: Upregulation of hnRNP E1 gene expression in human A549 cells at 12.5 to 50 uM incubated for 24 hrs by Western blot analysis; assay type: functional, cell-based; details: dose 12.5-50 µM
# A549 [12] = experiment: Induction of apoptosis in human A549 cells transfected in hnRNP E1 siRNA assessed as reduction in cell number incubated for 24 hrs by Hoechst 33258 staining based analysis; assay type: functional
# A549 [13] = experiment: Inhibition of cell migration human A549 cells transfected with hnRNP E1 siRNA incubated upto 12 hrs by wound healing assay; assay type: functional, cell-based
# [14] = Metabolic stability in human liver microsome assessed as half life measured upto 4 hrs in presence of NADPH by LC-MS/MS analysis; assay type: ADME; details: liver microsomes
# [15] = Metabolic stability in rat liver microsome assessed as half life measured upto 4 hrs in presence of NADPH by LC-MS/MS analysis; assay type: ADME; details: liver microsomes
# [16] = Tmax in Sprague-Dawley rat at 10 mg/kg, po measured upto 24 hrs by LC-MS/MS analysis; assay type: ADME, organism-based; details: in vivo
# [17] = Cmax in Sprague-Dawley rat at 10 mg/kg, po measured upto 24 hrs by LC-MS/MS analysis; assay type: ADME, organism-based; details: in vivo
# [18] = Cmax in Sprague-Dawley rat at 2 mg/kg, iv measured upto 24 hrs by LC-MS/MS analysis; assay type: ADME, organism-based; details: in vivo
# [19] = Half life in Sprague-Dawley rat at 10 mg/kg, po measured upto 24 hrs by LC-MS/MS analysis; assay type: ADME, organism-based; details: in vivo
# [20] = Half life in Sprague-Dawley rat at 2 mg/kg, iv measured upto 24 hrs by LC-MS/MS analysis; assay type: ADME, organism-based; details: in vivo
# [21] = AUC (0 to t) in Sprague-Dawley rat at 10 mg/kg, po measured upto 24 hrs by LC-MS/MS analysis; assay type: ADME, organism-based; details: in vivo
# [22] = AUC (0 to t) in Sprague-Dawley rat at 2 mg/kg, iv measured upto 24 hrs by LC-MS/MS analysis; assay type: ADME, organism-based; details: in vivo
# [23] = AUC (0 to infinity) in Sprague-Dawley rat at 10 mg/kg, po measured upto 24 hrs by LC-MS/MS analysis; assay type: ADME, organism-based; details: in vivo
# [24] = AUC (0 to infinity) in Sprague-Dawley rat at 2 mg/kg, iv measured upto 24 hrs by LC-MS/MS analysis; assay type: ADME, organism-based; details: in vivo
# [25] = Clearance in Sprague-Dawley rat at 2 mg/kg, iv measured upto 24 hrs by LC-MS/MS analysis; assay type: ADME, organism-based; details: in vivo
# [26] = Volume of distribution in Sprague-Dawley rat at 2 mg/kg, iv measured upto 24 hrs by LC-MS/MS analysis; assay type: ADME, organism-based; details: in vivo
# [27] = Oral bioavailability in Sprague-Dawley rat at 10 mg/kg measured upto 24 hrs by LC-MS/MS analysis; assay type: ADME, organism-based; details: in vivo
# [28] = Bioavailability in Sprague-Dawley rat at 2 mg/kg, iv measured upto 24 hrs by LC-MS/MS analysis; assay type: ADME, organism-based; details: in vivo
compound,measurement,setting,value
COc1ccc2c(c1)CCN(C[C@@H](O)Cn1ccc3ccc(Br)cc31)C2,IC50,[1],31.8 µM
same,Activity,A549 [2],Active
O[C@H](CN1CCc2ccccc2C1)Cn1ccc2ccc(Br)cc21,IC50,[1],0.38 µM
same,Activity,A549 [2],Active
same,IC50,A549 [3],29.5 µM
same,IC50,MCF7,25.2 µM
same,IC50,MDA-MB-231,60.1 µM
same,IC50,HepG2,16.8 µM
same,IC50 at 24 h,[4],> 100 µM
O[C@H](CN1CCc2ccccc2C1)Cn1ccc2ccc(Cl)cc21,IC50,[1],0.53 µM
same,Activity,A549 [2],Active
N#Cc1ccc2c(ccn2C[C@H](O)CN2CCc3ccccc3C2)c1,IC50,[1],12 µM
same,Activity,A549 [2],Active
COc1ccc2c(ccn2C[C@H](O)CN2CCc3ccccc3C2)c1,IC50,[1],0.31 µM
same,IC50,[5],> 20 µM
same,IC50,[6],> 20 µM
same,Activity,A549 [2],Active
same,IC50,A549 [3],19.1 µM
same,IC50,MCF7,23.6 µM
same,IC50,MDA-MB-231,20.5 µM
same,IC50,HepG2,27.7 µM
same,IC50 at 24 h,[4],> 100 µM
same,Activity,A549 [7],Dose-Dependent Effect
same,Activity,A549 [8],Dose-Dependent Effect
same,Activity,A549 [9],68%
same,Activity,A549 [10],Active
same,Activity,A549 [11],Active
same,Activity,A549 [12],Active
same,Activity,A549 [13],inactive
same,half-life,[14],2.21 h
same,half-life,[15],0.342 h
same,Tmax,[16],2.7 h
same,Cmax,[17],0.16 µg/mL
same,Cmax,[18],0.181 µg/mL
same,half-life,[19],6.7 h
same,half-life,[20],4.1 h
same,AUC(0-t) at 24 h,[21],1.97 µg·h/mL
same,AUC(0-t) at 24 h,[22],1.25 µg·h/mL
same,AUC(0-inf),[23],2.18 µg·h/mL
same,AUC(0-inf),[24],1.28 µg·h/mL
same,clearance,[25],1.6 L/h/kg
same,Vd,[26],9.3 L/kg
same,bioavailability,[27],31.4%
same,F,[28],100%
COc1ccc2c(c1)CCN(C[C@@H](O)Cn1ccc3cc(OC)ccc31)C2,IC50,[1],36.3 µM
same,Activity,A549 [2],Active
O[C@H](CN1CCc2ccccc2C1)Cn1ccc2cc(F)ccc21,IC50,[1],18.8 µM
same,Activity,A549 [2],Active
COc1ccc2c(ccn2C[C@H](O)CN2CCc3ccc(Br)cc3C2)c1,IC50,[1],33.2 µM
same,Activity,A549 [2],Active
Cc1ccc2ccn(C[C@H](O)CN3CCc4ccccc4C3)c2c1,IC50,[1],6.4 µM
same,Activity,A549 [2],Active
O[C@H](CN1CCc2ccccc2C1)Cn1ccc2ccccc21,IC50,[1],0.85 µM
same,Activity,A549 [2],Active
N#Cc1cccc2c1ccn2C[C@H](O)CN1CCc2ccccc2C1,IC50,[1],5.01 µM
same,Activity,A549 [2],Active
N#Cc1ccc2ccn(C[C@H](O)CN3CCc4ccccc4C3)c2c1,IC50,[1],1.21 µM
same,Activity,A549 [2],Active
Oc1ccc2c(c1)CCN(C[C@@H](O)Cn1ccc3ccc(Br)cc31)C2,IC50,[5],10.2 µM
same,IC50,[6],> 20 µM
same,Activity,A549 [2],Active
same,IC50,A549 [3],14.2 µM
same,IC50,MCF7,28.9 µM
same,IC50,MDA-MB-231,21.3 µM
same,IC50,HepG2,58.1 µM
same,IC50 at 24 h,[4],> 100 µM
same,Activity,A549 [7],Dose-Dependent Effect
same,Activity,A549 [8],Dose-Dependent Effect
same,Activity,A549 [9],68%
same,Activity,A549 [10],Active
same,Activity,A549 [11],Active
same,Activity,A549 [12],Active
same,Activity,A549 [13],inactive
same,half-life,[14],0.363 h
same,half-life,[15],0.0783 h
Cc1cccc2c1ccn2C[C@H](O)CN1CCc2ccccc2C1,IC50,[1],1.8 µM
same,Activity,A549 [2],Active
COc1cc2c(cc1OC)CN(C[C@@H](O)Cn1ccc3ccc(Br)cc31)CC2,IC50,[1],61.4 µM
same,Activity,A549 [2],Active
COc1ccc2c(ccn2C[C@H](O)CN2CCc3cc(O)ccc3C2)c1,IC50,[1],0.12 µM
same,Activity,A549 [2],Active
O[C@H](CN1CCc2ccccc2C1)Cn1ccc2c(F)cccc21,IC50,[1],1.7 µM
same,Activity,A549 [2],Active
Cc1ccc2c(ccn2C[C@H](O)CN2CCc3ccccc3C2)c1,IC50,[1],0.62 µM
same,Activity,A549 [2],Active
CC1c2ccccc2CCN1C[C@@H](O)Cn1ccc2ccc(Br)cc21 (stereo not given in full),Activity,A549 [2],Active
COc1ccc2c(ccn2C[C@H](O)CN2CCc3cc(OC)c(OC)cc3C2)c1,IC50,[1],40.4 µM
same,Activity,A549 [2],Active
COc1ccc2c(ccn2C[C@H](O)CN2CCc3ccccc3C2C)c1 (stereo not given in full),IC50,[1],14.8 µM
same,Activity,A549 [2],Active
O[C@H](CN1CCc2cc(Br)ccc2C1)Cn1ccc2ccc(Br)cc21,IC50,[1],2.44 µM
same,Activity,A549 [2],Active
O=C(NC[C@H](O)CN1CCc2ccccc2C1)c1ccc2c(c1)CCN(C(=O)c1ccc(Br)cc1)C2,IC50,[1],0.008 µM
same,half-life,[14],1.45 h
same,half-life,[15],0.173 h
same,Tmax,[16],0.3 h
same,Cmax,[17],0.0771 µg/mL
same,half-life,[19],2.31 h
same,AUC(0-t) at 24 h,[21],0.223 µg·h/mL
same,AUC(0-inf),[23],0.233 µg·h/mL
O[C@H](CN1CCc2ccccc2C1)Cn1ccc2cc(Cl)ccc21,IC50,[1],8.2 µM
same,Activity,A549 [2],Active
COc1cccc2c1ccn2C[C@H](O)CN1CCc2ccccc2C1,IC50,[1],4.58 µM
same,Activity,A549 [2],Active
Cc1cc2cc(F)ccc2n1C[C@H](O)CN1CCc2ccccc2C1,IC50,[1],22.5 µM
same,Activity,A549 [2],Active
Cc1cn(C[C@H](O)CN2CCc3ccccc3C2)c2ccccc12,IC50,[1],3.22 µM
same,Activity,A549 [2],Active
N#CCc1cn(C[C@H](O)CN2CCc3ccccc3C2)c2ccccc12,IC50,[1],4.12 µM
same,Activity,A549 [2],Active
Cc1cc2ccccc2n1C[C@H](O)CN1CCc2ccccc2C1,IC50,[1],1.3 µM
same,Activity,A549 [2],Active
COc1ccc2c(ccn2C[C@H](O)CN2CCc3cc(Br)ccc3C2)c1,IC50,[1],51.3 µM
same,Activity,A549 [2],Active
O[C@H](CN1CCc2ccc(Br)cc2C1)Cn1ccc2ccc(Br)cc21,IC50,[1],3.25 µM
same,Activity,A549 [2],Active
CC(=O)c1cn(C[C@H](O)CN2CCc3ccccc3C2)c2ccccc12,IC50,[1],2.52 µM
same,Activity,A549 [2],Active
N#Cc1cn(C[C@H](O)CN2CCc3ccccc3C2)c2ccccc12,IC50,[1],2.1 µM
same,Activity,A549 [2],Active
